The source of these data is ChEMBL document CHEMBL5352443, “S-acylthioalkyl ester (SATE)-based prodrugs of deoxyribose cyclic dinucleotides (dCDNs) as the STING agonist for antitumor immunotherapy” (Eur J Med Chem, 2022).

SMILES strings stand for the structures. The source made the active and inactive calls. No cut-off for these calls is given here.

In data set [1] the target is T1, Stimulator of interferon genes protein (Homo sapiens, UniProt Q86WV6). Description: Agonist activity at STING in human THP-1 reporter cells incubated for 24 hrs by QUANTI-Luc assay. It counts as cell-based.
Data set [2] has as its target T1, Stimulator of interferon genes protein. The data set is described as follows: Agonist activity at STING in human THP-1 reporter cells incubated for 4 hrs in presence of lipofectamine 2000 by QUANTI-Luc assay. In kind it is cell-based.
Data set [3] has the same target. The data set is described as follows: Agonist activity at STING in PMA-treated human THP-1 reporter cells incubated for 30 mins in presence of digitonin by QUANTI-Luc assay. In kind it is cell-based.
Data set [4] can be described thus: Stability of the compound in 20% fetal bovine serum assessed as drug degradation at 100 uM measured at 72 hrs by HPLC analysis. It counts as ADME, cell-free, Bos taurus. Particulars: cattle.
The subject of data set [5] is CT26. Description: Antitumor activity against mouse CT26 cells expressing high luciferase implanted in BALB/c mouse assessed as darkening of tumor tissue at 0.5 mg/kg, IT administered intratumorally on day 1,3,5,7 and measured on day 1,9,14,24 by fluorescence imaging analysis. It counts as functional, organism-based. Particulars: route it(Intratumoral), time 24.0 day.

The nature of data set [6]: Toxicity in BALB/c mouse implanted with mouse CT26 cells expressing high luciferase assessed as mouse survival rate at 0.5 mg/kg, IT administered intratumorally on day 1,3,5,7 and measured at 50 days. It counts as organism-based. The conditions noted are these: in vivo, route it(Intratumoral), time 50 day.

T1 sequence (Q86WV6 whole entry): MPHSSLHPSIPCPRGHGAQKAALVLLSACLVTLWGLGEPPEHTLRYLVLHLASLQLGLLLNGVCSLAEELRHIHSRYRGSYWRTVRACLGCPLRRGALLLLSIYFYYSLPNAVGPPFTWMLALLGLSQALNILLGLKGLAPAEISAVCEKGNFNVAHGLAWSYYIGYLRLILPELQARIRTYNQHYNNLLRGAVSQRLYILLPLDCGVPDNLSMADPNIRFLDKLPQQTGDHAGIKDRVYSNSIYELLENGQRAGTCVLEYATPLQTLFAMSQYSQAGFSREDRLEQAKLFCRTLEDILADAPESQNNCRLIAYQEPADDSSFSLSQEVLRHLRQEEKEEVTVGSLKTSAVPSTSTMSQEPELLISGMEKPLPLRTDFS

What is called EC50 is the concentration giving half of the maximal effect. For `Nc1ncnc2c1ncn2[C@H]1C[C@@H]2OP(=O)(O)OC[C@H]3O[C@@H](n4cnc5c(N)ncnc54)C[C@@H]3OP(=O)(O)OC[C@H]2O1`, the 50% effective concentration (EC50) in data set [1] was determined as 41.3 µM; in data set [2], 673 nM; in data set [3], 317 nM. Also, the Stability entry in data set [4] (serum, 72 h, 100 µM) was “Stable”.

In the case of `Nc1nc2c(ncn2[C@@H]2O[C@@H]3COP(=O)(O)O[C@H]4[C@@H](O)[C@H](n5cnc6c(N)ncnc65)O[C@@H]4COP(=O)(O)O[C@@H]2[C@@H]3O)c(=O)[nH]1`, in data set [4] (20% fetal bovine serum, read-out: Drug degradation), the metabolised at 72 h, 100 µM stood at 80%.

In the case of `Nc1ncnc2c1ncn2[C@@H]1O[C@@H]2COP(=O)(S)O[C@@H]3[C@H](O)[C@@H](COP(=O)(S)O[C@H]2[C@H]1O)O[C@H]3n1cnc2c(N)ncnc21` (some centres not stated), the result in data set [5] was Active. Further, the survival at 1200 h in data set [6] worked out at 75%.
